{
  "source": "patent US8188087B2",
  "about": "“Crystalline (3-cyano-1H-indol-7-yl)-[4-(4-fluorophenethyl) piperazin-1-yl]methanone phosphate” (Merck Patent GmbH, priority 2006, dated 2012)",
  "type_in_all_cases": "physicochemical",
  "key": {"[1]": {"assay": "Solid-state (polymorphic/crystal form) stability", "excerpt": "It is disadvantageous for a formulation to comprise a plurality of crystal forms of an active ingredient in that they may have different bioavailabilities and/or stability. Even slight variations in production conditions may compromise the reproducibility of the crystal form and therefore the performance of the formulated product. In addition, poorly crystalline materials are typically less desirable than highly crystalline materials because they are generally more difficult to handle during formulation processes.\nThe Anhydrate is not stable under the conditions necessary for obtaining an SSNMR spectrum."}, "[2]": {"assay": "Water retained in the crystal lattice in equilibrium with relative humidity", "conditions": "in equilibrium with a relative humidity of about 5% to about 95%", "excerpt": "Two new crystalline forms are characterized by, inter alia, x-ray powder diffractometry, or alternatively, solid state nuclear magnetic resonance spectroscopy. One preferred embodiment of the present invention provides for a crystalline (3-cyano-1H-indol-7-yl)-[4-(4-fluorophenethyl)piperazin-1-yl]methanone phosphate hydrate Form I (Form I). Form I is characterized as a non-stoichiometric hydrate in that it retains water about 1.2% by weight of compound (up to approximately ⅓ mole of water per mole of compound) within the crystalline lattice when in equilibrium with a relative humidity of about 5% to about 95%."}, "[3]": {"assay": "Solubility in the crystallization/isolation solvent systems", "conditions": "all of the solvent systems tested; isolation temperatures about 5° C. to about 22° C.", "protocol": "Suitable solvents include, but are not limited to, methanol, ethanol, propan-1-ol, propan-2-ol, butan-2-ol, tetrahydrofuran, acetone, and the like. Suitable temperatures for salt formation typically range between about 50° C. to about 75° C. depending on the solvent. One preferred temperature range for salt formation is from the temperature at which the (3-cyano-1H-indol-7-yl)-[4-(4-fluorophenethyl)piperazin-1-yl]methanone is soluble up to the reflux temperature of the solvent. […] However, this may result in a slurry to slurry conversion of (3-cyano-1H-indol-7-yl)-[4-(4-fluorophenethyl)piperazin-1-yl]methanone to the salt.\nIsolation temperatures typically range between about 5° C. and about 22° C."}},
  "note": "Where a name gives a salt, the structure may show the parent alone.",
  "data": [
    {"smiles": "N#Cc1c[nH]c2c(C(=O)N3CCN(CCc4ccc(F)cc4)CC3)cccc12.O=P(O)(O)O", "note": "[Anhydrate, (3-cyano-1H-indol-7-yl)-[4-(4-fluorophenethyl)piperazin-1-yl]methanone phosphate anhydrate]", "values": [
      {"measurement": "crystal form stability under anhydrous conditions", "setting": "[1]; anhydrous conditions", "value": "stable"},
      {"measurement": "crystal form stability under SSNMR conditions", "setting": "[1]; conditions necessary for obtaining an SSNMR spectrum", "value": "not stable"},
      {"measurement": "crystal form conversion on exposure to water", "setting": "[1]; exposure to water, including atmospheric humidity", "value": "may be converted to Form I"}
    ]},
    {"smiles": "N#Cc1c[nH]c2c(C(=O)N3CCN(CCc4ccc(F)cc4)CC3)cccc12.O=P(O)(O)O", "note": "[Form I, (3-cyano-1H-indol-7-yl)-[4-(4-fluorophenethyl)piperazin-1-yl]methanone phosphate hydrate Form I]", "values": [
      {"measurement": "water retained within the crystalline lattice", "setting": "[2]", "value": "about 1.2 % by weight of compound"},
      {"measurement": "water retained within the crystalline lattice (molar)", "setting": "[2]", "value": "⅓"},
      {"measurement": "crystal form conversion on dehydration", "setting": "[1]; dehydrating the solid at 0% RH and ambient temperature", "value": "may be converted to the Anhydrate"}
    ]},
    {"smiles": "N#Cc1c[nH]c2c(C(=O)N3CCN(CCc4ccc(F)cc4)CC3)cccc12.O=P(O)(O)O", "note": "[The salt, (3-Cyano-1H-indol-7-yl)-[4-(4-fluorophenethyl)piperazin-1-yl]methanone phosphate]", "values": [
      {"measurement": "solubility in solvent systems tested", "setting": "[3]", "value": "low solubility"}
    ]},
    {"smiles": "N#Cc1c[nH]c2c(C(=O)N3CCN(CCc4ccc(F)cc4)CC3)cccc12", "note": "[hydrochloride salt, (3-cyano-1H-indol-7-yl)-[4-(4-fluorophenethyl)piperazin-1-yl]-methanone, reference compound]", "values": [
      {"measurement": "solid form stability upon compression", "setting": "[1]; upon compression during the manufacturing process", "value": "converts from a single polymorphic form into a second, poorly crystalline, metastable polymorphic form"}
    ]}
  ]
}
